{
  "source": "patent US20240423946A1",
  "about": "“COMPOUND FOR TREATING NON-ALCOHOLIC FATTY LIVER DISEASE AND RELATED DISEASES” (Algiax Pharmaceuticals GmbH, priority 2021, published 2024)",
  "format_in_all_cases": "cell-based",
  "key": {"HepG2 cells": {"system": "HepG2 cells", "assay": "Palmitate-induced apoptosis, Caspase-Glo 3/7 activity in HepG2 cells", "conditions": "24 h", "experimental": "NAFLD is characterized by excessive hepatic fat accumulation which leads to cell death, including apoptosis, of liver cells in the progression of the disease. HepG2s (liver cell line) were seeded in a 96-well plate and cultured for 48 h before inducing cell death/apoptosis with 100 μM, 150 μM, 200 μM, 250 μM, 300 μM BSA-coupled palmitic acid (PA). A concentration-response curve to palmitate for apoptosis expressed as percentage of control of Caspase 3/7 (apoptosis marker) activity of HepG2 cells treated for 24 h were determined. As a positive control for apoptosis 2 μM staurosporine was used. Caspase 3/7 activity after 24 h was measured by a Caspase-Glo® 3/7 Assay (Promega) as described in the manufacturer's protocol. Luminescence was recorded after an incubation step of 35 min using the plate-reader luminometer of a Cytation™ 5.\nHepG2 cells were treated with palmitate acid (200 μM) in the presence or absence of HK4 (100 nM) and GABA (100 μM), as well as with the vehicle BSA and the positive control for apoptosis staurosporine (STP) (2 μM) for 24 h. As a negative control an apoptosis inhibitor (API) (100 μM) was used. As described in Example I Caspase 3/7 activity after 24 h was measured by a Caspase-Glo® 3/7 Assay (Promega)."}, "Caspase 7": {"system": "Caspase 7", "assay": "Human apoptosis array, Caspase 7 protein in lysates of treated HepG2 cells", "conditions": "HepG2, HK4 100 nM and PA", "experimental": "Markers of apoptosis were analysed in the cell lysates of treated HepG2s with a human apoptosis array (RayBiotech, Peachtree Corners, GA) according to manufacturer's protocol. The total protein content was measured using the Pierce BCA protein assay kit (Thermo Fisher Scientific). Membranes were incubated with 250 μg of total protein from untreated and treated HepG2 cells. The spot intensities were quantified after an exposure of 500 ms using the ChemStudio analysis software (Analytik Jena) and normalized to the untreated control after background subtraction with the design spots for it."}, "NF-κB subunit p65": {"system": "NF-κB subunit p65", "assay": "Western blot, phospho-NF-κB p65 to NF-κB p65 ratio in HepG2 cells", "experimental": "Beside excessive hepatic fat accumulation, inflammation is one of the critical steps in the progression of NAFL to NASH. As an indicator of inflammation, phosphorylation of the transcription factor NF-κB was monitored by a phospho-p65 specific antibody using protein extraction and western blotting.\nHepG2 cells were homogenized in lysis buffer including a protease and phosphatase inhibitor cocktail. Cell lysates were centrifuged at 12.000 rpm for 15 min. The protein concentrations were determined using the Pierce BCA protein assay kit (Thermo Fisher Scientific). 20 μg of Proteins were resolved on 4-20% gradient gels (Bio-Rad, Hercules, CA) and transferred onto an Immun-Blot PVDF membrane (Bio-Rad). Membranes were blocked with 5% non-fat dry milk or bovine serum albumin in TBPS containing 0.1% Tween for 1 h at RT, followed by an overnight incubation with the respective primary antibody: Phospho-NF-κB p65 and NF-κB p65 (Cell Signaling Technology, Frankfurt, Germany). Membranes were incubated with the corresponding HRP-coupled secondary antibody. Protein bands were visualized using an ECL Western blot detection substrate (Bio-Rad). The band intensities were quantified with the ChemStudio analysis software (Analytik Jena, Jena, Germany) and normalized by GAPDH band intensity."}, "[1]": {"system": "primary human hepatocytes", "assay": "Palmitate-induced apoptosis, caspase 3/7 activity in human primary hepatocytes", "conditions": "24 h", "description": "Human primary hepatocytes were purchased from Thermo Fisher and cultured according to the manufacturer's instructions. […] To achieve finale palmitate concentrations, sodium palmitate was complexed with a preheated BSA (Carl Roth, Karlsruhe, Germany) solution at a 2.6:1 molar ratio."}},
  "data": [
    {"smiles": "NCCCC(=O)O", "note": "[GABA, gamma-Aminobutyric acid]", "values": [
      {"measurement": "PA-induced apoptosis rate (caspase 3/7 activity), with GABA", "setting": "HepG2 cells; HepG2, GABA 100 μM + palmitate 200 μM", "result": "764.9±16.72", "unit": "%"}
    ]},
    {"smiles": "Cc1cc(NC(=S)/C(C#N)=C(\\O)C2CC2)ccc1C#N", "note": "[HK4, 2-Cyano-N-(4-cyano-3-methyl-phenyl)-3-cyclopropyl-3-hydroxy-thioacrylamide]", "values": [
      {"measurement": "Caspase 3/7 activity provoked by palmitate 200 μM, with HK4", "setting": "HepG2 cells; HepG2, HK4 100 nM + palmitate 200 μM", "result": "47.32±19.56", "unit": "%"},
      {"measurement": "Caspase 3/7 activity compared to untreated control cells", "setting": "HepG2 cells; HepG2, HK4 alone (100 nM)", "result": "21.60±2.52", "unit": "%"},
      {"measurement": "Caspase 7 protein expression vs. PA alone", "setting": "Caspase 7", "result": "60.91±4.18", "unit": "%"},
      {"measurement": "Effect on phosphorylation of the NF-κB subunit p65 compared to untreated cells", "setting": "NF-κB subunit p65; HepG2, HK4 alone", "result": "no effect"},
      {"measurement": "Ratio of phosphorylated NF-κB to non-phosphorylated NF-κB subunit p65, % of PA", "setting": "NF-κB subunit p65; HepG2, pre-incubation with HK4 then palmitate acid, PA = 100%", "result": "55.24±10.64", "unit": "%"},
      {"measurement": "Caspase 3/7 activity provoked by palmitate 100 μM, HK4 pre-treatment", "setting": "[1]; HK4 (10 μM) 1 h prior to palmitate 100 μM", "result": "58.73±16.86", "unit": "%"},
      {"measurement": "Caspase 3/7 activity provoked by palmitate 200 μM, HK4 pre-treatment", "setting": "[1]; HK4 (10 μM) 1 h prior to palmitate 200 μM", "result": "57.13±21.47", "unit": "%"}
    ]},
    {"smiles": "CCCCCCCCCCCCCCCC(=O)O", "note": "[Palmitate acid, palmitic acid, reference compound]", "values": [
      {"measurement": "Caspase 3/7 activity provoked by palmitate 200 μM", "setting": "HepG2 cells; HepG2, palmitate 200 μM alone", "result": "1130±103.3", "unit": "%"},
      {"measurement": "Caspase 3/7 activity (apoptosis), percentage of control", "setting": "HepG2 cells; HepG2, palmitate acid 100 μM alone", "result": "342.2±12.25", "unit": "%"},
      {"measurement": "Caspase 3/7 activity provoked by palmitate 100 μM", "setting": "[1]; palmitate 100 μM alone", "result": "147.3±31.3", "unit": "%"},
      {"measurement": "Caspase 3/7 activity provoked by palmitate 200 μM", "setting": "[1]; palmitate 200 μM alone", "result": "155.1±3.78", "unit": "%"}
    ]}
  ]
}
